Entries after “also recorded” stand apart in the source; their conditions may differ.
How the values were obtained:
[1] = Binding of IP-10 derived short peptides to nanoparticles, absorbance at 206 nm (Experiment 7); conditions: 50 μg/ml peptide, 3 h room temperature, FIG. 14; for binding to SiO2 particles: 25 mg SiO2 10-20 nm; for binding to TiO2 nanoparticles: 25 mg TiO2 21 nm
Method: Lyophilized peptides were dissolved with water (Sigma, molecular biology degree) to a concentration of 5 mg/ml (Table 6). Working solutions of the different peptides were diluted further with PBS (PAA laboratories) to 50 μg/ml. 25 mg of TiO2 (Titanium(IV) oxide nanopowder, 21 nm particle size, catalog number 718467, Sigma-Aldrich), SiO2 (Silicon dioxide nanopowder, 10-20 nm particle size, catalog number […], Sigma-aldrich), MgO (Magnesium oxide nanopowder, <50 nm particle size, catalog number 549649, Sigma-Aldrich) were used for the studies. Briefly, 250 μl of peptide solution containing 50 μg/ml was incubated with 25 mg of the materials in an orbital shaker for 3 h at room temperature. Different controls were used and processed in parallel with the other samples: solutions with peptides alone, PBS alone and TiO2/SiO2/MgO in PBS. After this time, all the samples were centrifuged at 13.000×g for 3 min at 20° C. 100 μl of the supernatant solution was carefully collected and placed in a 96-well UV plate and read with PowerWave™ microplate spectrophotometer from BioTek. Absorbances at 206 nm and also spectrum curves for each sample were collected and analyzed.

MC3T3-E1 cells = assay: DNA quantification (cell number) of cells on peptide-coated Ti; assay type: cell-based; conditions: 48 h culture on Ti coated with 50 μg/ml peptide, FIG. 9
Method: (§1) Under aseptic conditions, implants were immersed in a 3:7 (v/v) HNO3-DI water solution for 30 min at room temperature. Then, they were rinsed with milliQ water and placed in a covered milliQ water bath for 24 h. Implants were dried with N2 and were placed in a 96-well plates. Then, 200 μl of 50 μg/ml peptide solutions in PBS were added to each implant. Absorption took place for 24 h at 37° C. in a humidified atmosphere. After 24 h peptide solutions were collected and surfaces were washed with 200 μl of PBS and air-dried in order to perform cell experiments. The surfaces were denoted Ti (uncoated Ti), P1 (Ti coated with IP10-RGD), P2 (Ti coated with IP10mut-RGD), P3 (Ti coated with IP10-RGDmut) and P4 (Ti coated with IP10mut-RGDmu).
(§2) MC3T3-E1 cells were routinely cultured at 37° C. in a humidified atmosphere of 5% CO2, and maintained in α-minimum essential medium (α-MEM) supplemented with 10% fetal bovine serum (FBS) and antibiotics (50 IU penicillin/ml and 50 μg streptomycin/ml). 7.0×10^3 cells were seeded on the peptide-coated implants. Trypan blue stain was used to determine total and viable cell number. The same number of cells was cultured in parallel in plastic culture plates in the experiment. All experiments were performed after 15 passages of the MC3T3-E1 cells.
Culture media was removed from wells and plates were frozen at −80° C. until the experiment was carried out. At the day of analysis, 100 μl of distilled water were added to each well. Plates were incubated for 1 hour at room temperature. Again, plates were frozen at −80° C. to lysate cells. Plates were thawed until reaching room temperature and 100 μl of Hoechst 33258 at 20 μg/ml in THE buffer were added. Then, 200 μl aliquots were transferred to 96-well fluorescence plates and a spectrophotometer was set to record fluorescence. Relative fluorescence units were correlated with the cell number using a linear standard curve.

integrin β3 = assay: Immunocytochemistry of integrin β3 in MC3T3-E1 cells on peptide-coated Ti; assay type: cell-based; conditions: FIG. 12; for integrin β3 staining: after 72 h of culture
Method: as §1, with “Adsorption” for “Absorption”, “in vitro” for “cell”, “experiments.” for “experiments. The surfaces were denoted Ti (uncoated Ti), P1 (Ti coated with IP10-RGD), P2 (Ti coated with IP10mut-RGD), P3 (Ti coated with IP10-RGDmut) and P4 (Ti coated with IP10mut-RGDmu).”
as §2, with “α-MEM” for “α-minimum essential medium (α-MEM)”, “FBS” for “fetal bovine serum (FBS)”, “4” for “15”
Cells grown for 24 and 72 h on the surfaces were fixed for 15 min with 4% formaldehyde in PBS at room temperature. Cells were incubated with 0.1% Triton X-100 for 5 min, 1% bovine serum albumin for 30 min and then with anti-integrin beta-3 antibody for 1 h at 1:50 dilution in PBS. Then, a Cy3-conjugated goat anti-rabbit IgG was used as secondary antibody for 1.5 h at 1:200 dilution in PBS. For actin cytoskeleton visualization, cells were stained with phalloidin-FITC 5 μg/mL in PBS for 30 min. Cells were washed with PBS and coin-shaped samples were placed on slides. Finally, a drop of Fluoroshield with DAPI was added and cover glasses were mounted on the samples. Two samples of each group were used to perform the experiment and two images of each sample were taken with the confocal microscope (Leica DMI 4000B equipped with Leica TCS SPE laser system).

[2] = Binding of IP-10 derived short peptides to TiO2 P25 particles, absorbance at 206 nm (Experiment 2); conditions: Experiment 2, 50 μg/ml peptide, 25 mg TiO2, 3 h room temperature
Method: 5 mg of eleven peptides (Table 2) were dissolved with 1 ml of water for molecular biology (Sigma-Aldrich, St. Louis, Mo., USA). Working solutions of the different peptides were diluted further with phosphate buffered saline (PBS) (PAA Laboratories GmbH, Pasching, Austria) to 50 μg/ml. 25 mg of TiO2 (P25 from Degussa and P90 from Sigma-Aldrich) were used for the studies. Briefly, 250 μl of peptide solution was incubated with 25 mg of TiO2 powder with different particle size (P25 and P90) in an orbital shaker (IKA Vibrax VXR basic, Staufen, Germany) for 3 h at room temperature. Different controls were used and processed in parallel with the other samples: solutions with peptides alone, PBS alone and P25/P90 in PBS. After this time, all the samples were centrifuged at 13.000×g for 3 min at 20° C. 100 μl of the supernatant solution was carefully collected and placed in a 96-well UV plate and read with PowerWave™ microplate spectrophotometer from BioTek. Absorbances at 206 nm and also spectrum curves for each sample were collected and analysed.

[3] = Binding of fluorescent IP-10 short peptides to titanium foils, fluorescence microscope (Experiment 3); conditions: FITC-labeled peptides 50 μg/ml, 8×8 mm Ti foils, 3 h room temperature, FIG. 7
Method: 5 mg of the different peptides (Table 3), which were labeled with fluorescein isothiocyanate, were dissolved with 1 ml of water with molecular biology degree (Sigma-Aldrich, St. Louis, Mo., USA). Working solutions of the different peptides were diluted further with PBS (PAA Laboratories GmbH, Pasching, Austria) to 50 μg/ml. Briefly, 500 μl of peptide solution was incubated with 8×8 mm Ti foils (Sigma Aldrich, thickness 0.127 mm, 99.7%, cut into 8×8 mm^2 samples) in an orbital shaker (IKA Vibrax VXR basic, Staufen, Germany) for 3 h at room temperature. Experiments were run in duplicate.
Ti foils were rinsed twice with PBS to remove unbound labeled peptides. Remaining liquid was allowed to dry and samples were put on microscope slides. […] Two images of each surface were taken.

[4] = Binding of IP-10 derived peptides to TiO2 P90, absorbance at 206 nm (Experiment 1); conditions: 50 μg/mL peptide in PBS, 20 mg TiO2 P90, 3 h room temperature, FIG. 3
Method: This experiment was conducted to find the exact region of the IP-10 molecule that binds to titanium. In this experiment the effect of TiO2 (diameter ˜14 nm, product number P 90, Aerosil Evonic Ind.) on peptides synthesized from the IP-10 molecule by absorbance measurements using a Spektro U29-10 Hitachi spectrophotometer.
Seventeen different peptides having sequences of various portion of IP-10 were dissolved in water and thereafter diluted to working solution (50 μg/mL) in phosphate buffered saline (PBS), see Table 1 and FIG. 2.
The absorbance of the peptides bound to TiO2 surfaces P90 from Sigma-Aldrich) were measured at 206 nm using a Spektro U29-10 Hitachi spectrophotometer. Briefly, 20 mg TiO2 (P90) was incubated with 250 μl of peptide solution. After 3 h incubation on a shaking device in room temperature, with vortexing every hour, the samples were centrifuged (13 000×g, 3 min) and the supernatant was collected. As a negative control, PBS alone was used and positive control was peptide solution alone. Every sample was made in double and the experiments were repeated.

For KRCLN (listed as Homo sapiens) [IPE], which “binding to SiO2 particles” value [1] is on record?
The value was “binding”.

What about the “binding to TiO2 nanoparticles” value [1] of the same substance?
The value was “binding”.

Which results are given for “MTTTGEGGGGGGGGRGES (Mutated IP-10 derived peptide connected to mutated RGD motif via poly-G-linker) [Peptide P4]”?
number of cells (DNA quantification) (MC3T3-E1 cells): lowest; number of cells (DNA quantification) (MC3T3-E1 cells; listed as double mutant peptide sequence): lastly; integrin β3 staining (integrin β3): no clear staining

For TMKKK (listed as Homo sapiens) [IP2], which “binding to TiO2 particles (in words)” value [2] is on record?
Its value is “very strong binding; also recorded: best binding sequence”.

What about the “binding to TiO2 nanoparticles” value [1] of the same substance?
The value was “higher binding”.

For ATMKK (listed as Homo sapiens) [IP1], which “binding to TiO2 particles (in words)” value [2] is on record?
Its value is “very strong binding”.

For “FCSEPKKKMT (IP-10 derived peptide linked to randomized tag sequence) [IP10b]”, which “signal from the fluorescent peptides bound to Ti” value [3] is on record?
Its value is “lower than for IP10 but higher than for IP10r”.

Which “integrin β3 staining” value (integrin β3) does the source give for “MTTTGEGGGGGGGGRGDS (Mutated IP-10 derived peptide connected to RGD motif via poly-G-linker) [Peptide P2]” here?
Its value is “no clear staining”.

For MKKKG (listed as Homo sapiens) [IP3], which “binding to TiO2 particles (in words)” value [2] is on record?
Its value is “very strong binding”.

What about the “binding to TiO2 nanoparticles” value [1] of the same substance?
The value was “higher binding”.

For “IKNLLKAVSKERSKRSP (listed as Homo sapiens) [Peptide 6]”, which “binding to TiO2 P90 (percentage of peptides absorbed, ranking)” value [4] is on record?
The value was “bound most”.

Which “binding to TiO2 particles (in words)” value [2] does the source give for KKGEI (IP-10 derived peptide) [IP5] here?
The value was “very strong binding”.

Which results are given for RCLNP (listed as Homo sapiens) [IPF]?
binding to SiO2 particles [1]: binding; binding to TiO2 nanoparticles [1]: binding

With “IIATMKKKGEKRCLNPESKA (listed as Homo sapiens) [Peptide 5]” as the substance, how does the “binding to TiO2 P90 (percentage of peptides absorbed, ranking)” value [4] read?
Its value is “bound most”.

Which “binding to TiO2 particles (in words)” value [2] does the source give for KKKGE (listed as Homo sapiens) [IP4] here?
Its value is “very strong binding”.

And the “binding to TiO2 nanoparticles” value [1]?
The value was “higher binding”.

Which “signal from the fluorescent peptides bound to Ti” value [3] does the source give for PESCF (Randomized tag sequence) [IP10r] here?
Its value is “lowest”.

Which “signal from the fluorescent peptides bound to Ti” value [3] does the source give for “TMKKKPESCF (IP-10 derived peptide linked to randomized tag sequence) [IP10a]” here?
Its value is “lower than for IP10 but higher than for IP10r”.

For “MKKKGEGGGGGGGGRGES (IP-10 derived peptide connected to mutated RGD motif via poly-G-linker) [Peptide P3]”, which “integrin β3 signal” value (integrin β3; after 24 h of culture) is on record?
Its value is “showed integrin β3 signal”.

And the “integrin β3 staining” value (integrin β3)?
The value was “no clear staining; also recorded: disappeared”.
